Structures are written as SMILES.

Common to all, as to type: cell-based
The subject of test [1] is G-401 (human renal carcinoma Wilms cell). In words: Cell viability (CellTiter-Glo), G-401. The conditions noted are these: sensitive group, 3-4 days of culture, n=3, read-out: Tigecycline IC50. As to the method:
(§1) The inhibitory effect of tigecycline on various tumor cell lines was detected using cell activity detection reagent.
(§2) Cell viability was detected using the Promega CellTiter-Glo kit, cell viability was determined by directly measuring intracellular ATP content. In the experiment, the IC50 value of tigecycline on various tumor cell lines was determined.
(§3) Each tumor cell was cultured separately in relevant medium (+p/s), and was incubated for 3 h, then the gradient diluted tigecycline was added. After 3-4 days of culture, the relevant IC50 (50% inhibiting concentration) was measured (n=3). The name, source and culture conditions of each tumor cell line were as follows:
Cell line G-401 (ATCC, No. CRL-1441) was cultured in 10% fetal bovine serum-containing McCoy's 5a medium (+P/S).

Test [2] deals with 786-O (clear cell renal cell adenocarcinoma cell). Briefly: Cell viability (CellTiter-Glo), 786-O. The conditions noted are these: Homo sapiens, 786-0, insensitive group, 3-4 days of culture, n=3, read-out: Tigecycline IC50. As to the method:
as §1, §2, §3
Cell line 786-0 (ATCC, No. CRL-1932) was cultured in 10% fetal bovine serum-containing RPMI1640 medium (+P/S).

Test [3] has as its system SF-126 (human glioblastoma multiforme cell). In words: Cell viability (CellTiter-Glo), SF-126. To be noted: insensitive group, 3-4 days of culture, n=3, read-out: Tigecycline IC50. How it is done:
as §1, §2, §3
Cell line SF126 (JCRB. No. IFO50286) was cultured in 10% fetal bovine serum-containing EMEM medium (+P/S).

The subject of test [4] is CFPAC-1 (human pancreatic cancer cell). Briefly: Cell viability (CellTiter-Glo), CFPAC-1. To be noted: insensitive group, 3-4 days of culture, n=3, read-out: Tigecycline IC50. How it is done: as §1, §2, §3
Cell line CFPAC-1 (ATCC, No. CRL-1918) was cultured in 10% fetal bovine serum-containing IMDM medium (+P/S).

The test system of test [5] is SW48 (human colon adenocarcinoma cell). In words: Cell viability (CellTiter-Glo), SW48. To be noted: sensitive group, 3-4 days of culture, n=3, read-out: Tigecycline IC50. As to the method:
as §1, §2, §3
Cell line SW48 (ATCC, No. CCL-231) was cultured in 10% fetal bovine serum-containing Leibovitz's L-15 medium (+P/S).

The subject of test [6] is NCI-H82 (human small cell lung cancer cell). In words: Cell viability (CellTiter-Glo), NCI-H82. To be noted: sensitive group, 3-4 days of culture, n=3, read-out: Tigecycline IC50. As to the method: as §1, §2, §3
Cell line NCI-H82 (ATCC, No. HTB-175) was cultured in 10% fetal bovine serum-containing RPMI1640 medium (+P/S).

The subject of test [7] is GB-1 (human glioblastoma cell). In words: Cell viability (CellTiter-Glo), GB-1. The conditions noted are these: insensitive group, 3-4 days of culture, n=3, read-out: Tigecycline IC50. How it is done:
as §1, §2, §3
Cell line GB-1 (JCRB, No. IFO050489) was cultured in 10% fetal bovine serum-containing DMEM medium (+P/S).

The subject of test [8] is MDA-MB-453 (breast cancer cell). Briefly: Cell viability (CellTiter-Glo), MDA-MB-453. To be noted: Homo sapiens, sensitive group, 3-4 days of culture, n=3, read-out: Tigecycline IC50. How it is done: as §1, §2, §3
Cell line MDA-MB-453 (ATCC, No. HTB-131) was cultured in 10% fetal bovine serum-containing Leibovitz's L-15 medium (+P/S).

In test [9] the test system is NCI-H82 (ov-NNMT) cell (NNMT protein-overexpressing). Briefly: Cell viability (CellTiter-Glo), NNMT-overexpressing NCI-H82. To be noted: Homo sapiens, NNMT gene inserted by viral vector, n=3, read-out: IC50 value of tigecycline on NNMT protein-overexpressing NCI-H82 cell (NCI-H82 (ov-NNMT)). The source says: (§4) The NNMT protein-overexpressing NCI-H82 cell (NCI-H82 (ov-NNMT)) was obtained by inserting the NNMT gene into NCI-H82 cell using a viral vector. The control NCI-H82 cell (NCI-H82 (Con)) was obtained by transfecting NCI-H82 cell with empty virus vector without carrying NNMT gene.
(§5) The expressing level of NNMT protein in control NCI-H82 cell (NCI-H82 (Con)) and NNMT protein-overexpressing NCI-H82 cell (NCI-H82 (ov-NNMT)) was detected using Western Blot assay (as shown in FIG. 7), it could be seen from FIG. 7 that the NNMT protein in NCI-H82 (ov-NNMT) cell was overexpressed compared with the expression level of NNMT protein in NCI-H82 (Con) cell.
(§6) The IC50 value of tigecycline on control NCI-H82 cell (NCI-H82 (Con)) and NNMT protein-overexpressing NCI-H82 cell (NCI-H82 (ov-NNMT)) was determined using Promega CellTiter-Glo kit which detected cell viability by directly measuring intracellular ATP content (n=3), the experiment result was shown in Table 4 below: […]

The test system of test [10] is NCI-H82 (Con) cell (transfected with empty virus vector). In words: Cell viability (CellTiter-Glo), control NCI-H82 (Con). The conditions noted are these: Homo sapiens, n=3, read-out: IC50 value of tigecycline on control NCI-H82 cell (NCI-H82 (Con)).
From the text: as §4, §5, §6

The subject of test [11] is WSU-DLCL2 (human diffuse large B-cell lymphoma). Briefly: Cell viability (CellTiter-Glo), WSU-DLCL2. The conditions noted are these: WSUDLCL2, sensitive group, 3-4 days of culture, n=3, read-out: Tigecycline IC50. As to the method:
as §1, §2, §3
Cell line WSU-DLCL2 (DSMZ, No. ACC-575) was cultured in 10% fetal bovine serum-containing RPMI1640 medium (+P/S).

With `CN(C)c1cc(NC(=O)CNC(C)(C)C)c(O)c2c1C[C@H]1C[C@H]3[C@H](N(C)C)C(O)=C(C(N)=O)C(=O)[C@@]3(O)C(O)=C1C2=O` [Tigecycline, tigecycline], the IC50 in test [1] is 4.04 µM; in test [2], 26.9 µM; in test [3], 26.3 µM; in test [4], 24.8 µM; in test [5], 6.31 µM; in test [6] it was 790 nM. Moreover, the IC50 in [7] was 18.5 µM; in test [8], 5.05 µM; in test [9], 2310 nM; in [10] it was 750 nM; in [11] it was 1360 nM.

The values are drawn from patent US20250268923A1, “APPLICATION OF TETRACYCLINE COMPOUND IN TREATMENT OF TUMOR” (NANJING SHIJIANG MEDICINE TECHNOLOGY CO., LTD, priority 2021, published 2025).
